We go through 31 compounds from ChEMBL document CHEMBL5291721, “A preclinical secondary pharmacology resource illuminates target-adverse drug reaction associations of marketed drugs” (Nat Commun, 2023).

Molecules are shown by their SMILES. Some results are limits rather than exact numbers.

Assay [1] has as its target 5-hydroxytryptamine receptor 2A (Homo sapiens, UniProt P28223). In kind it is functional, cell-based.
Assay [2] has as its target T1, Alpha-1A adrenergic receptor (Homo sapiens, UniProt P35348).
T1 sequence (P35348 whole entry): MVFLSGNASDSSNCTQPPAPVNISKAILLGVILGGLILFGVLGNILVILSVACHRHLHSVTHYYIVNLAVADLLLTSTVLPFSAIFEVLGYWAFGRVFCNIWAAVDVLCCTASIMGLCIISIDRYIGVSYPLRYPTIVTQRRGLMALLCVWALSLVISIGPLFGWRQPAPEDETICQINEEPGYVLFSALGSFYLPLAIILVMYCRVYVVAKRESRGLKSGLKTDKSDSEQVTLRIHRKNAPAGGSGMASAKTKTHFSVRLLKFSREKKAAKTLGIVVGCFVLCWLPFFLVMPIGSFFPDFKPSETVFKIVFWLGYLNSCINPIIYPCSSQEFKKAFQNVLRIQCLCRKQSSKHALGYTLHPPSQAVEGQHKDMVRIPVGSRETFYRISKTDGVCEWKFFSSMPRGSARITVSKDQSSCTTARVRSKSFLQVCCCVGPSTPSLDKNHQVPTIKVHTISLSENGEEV

Assay [3] addresses T2, Gamma-aminobutyric acid receptor subunit alpha-1/alpha-2/beta-2/gamma-2 (Homo sapiens, UniProt P14867+P18507+P47869+P47870). In kind it is functional, cell-based.
The target in assay [4] is T2, Gamma-aminobutyric acid receptor subunit alpha-1/alpha-2/beta-2/gamma-2. In kind it is functional, cell-based. The source holds these as a separate data set.
The target in assay [5] is Beta-3 adrenergic receptor (Homo sapiens, UniProt P13945).
The next assay deals with T3, B1 bradykinin receptor (Homo sapiens, UniProt P46663).
T3 sequence (P46663 whole entry): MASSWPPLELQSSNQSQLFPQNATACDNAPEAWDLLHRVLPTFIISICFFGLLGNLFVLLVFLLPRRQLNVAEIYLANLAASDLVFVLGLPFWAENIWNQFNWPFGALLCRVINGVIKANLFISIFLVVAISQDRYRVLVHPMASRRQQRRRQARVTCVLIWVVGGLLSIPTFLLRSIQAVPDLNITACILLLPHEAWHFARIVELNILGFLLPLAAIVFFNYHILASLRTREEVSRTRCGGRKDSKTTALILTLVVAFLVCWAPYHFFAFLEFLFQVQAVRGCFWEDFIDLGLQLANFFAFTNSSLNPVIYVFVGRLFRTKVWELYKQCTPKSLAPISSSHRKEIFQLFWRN

For assay [6], the target named is T4, Corticotropin-releasing factor receptor 2 (Homo sapiens, UniProt Q13324).
T4 sequence (Q13324 whole entry): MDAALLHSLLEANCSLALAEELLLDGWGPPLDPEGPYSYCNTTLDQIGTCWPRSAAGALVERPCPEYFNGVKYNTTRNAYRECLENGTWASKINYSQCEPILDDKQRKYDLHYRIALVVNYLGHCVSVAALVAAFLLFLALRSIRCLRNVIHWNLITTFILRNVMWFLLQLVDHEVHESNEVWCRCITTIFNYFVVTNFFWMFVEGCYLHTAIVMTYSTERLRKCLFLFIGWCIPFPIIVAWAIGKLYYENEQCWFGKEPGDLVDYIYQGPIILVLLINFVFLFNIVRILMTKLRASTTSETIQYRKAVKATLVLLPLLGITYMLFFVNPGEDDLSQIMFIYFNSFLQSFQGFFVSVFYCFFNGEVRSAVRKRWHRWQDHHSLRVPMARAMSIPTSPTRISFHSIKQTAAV

For a further assay, the target named is T5, Progesterone receptor (Homo sapiens, UniProt P06401).
T5 sequence (P06401 whole entry): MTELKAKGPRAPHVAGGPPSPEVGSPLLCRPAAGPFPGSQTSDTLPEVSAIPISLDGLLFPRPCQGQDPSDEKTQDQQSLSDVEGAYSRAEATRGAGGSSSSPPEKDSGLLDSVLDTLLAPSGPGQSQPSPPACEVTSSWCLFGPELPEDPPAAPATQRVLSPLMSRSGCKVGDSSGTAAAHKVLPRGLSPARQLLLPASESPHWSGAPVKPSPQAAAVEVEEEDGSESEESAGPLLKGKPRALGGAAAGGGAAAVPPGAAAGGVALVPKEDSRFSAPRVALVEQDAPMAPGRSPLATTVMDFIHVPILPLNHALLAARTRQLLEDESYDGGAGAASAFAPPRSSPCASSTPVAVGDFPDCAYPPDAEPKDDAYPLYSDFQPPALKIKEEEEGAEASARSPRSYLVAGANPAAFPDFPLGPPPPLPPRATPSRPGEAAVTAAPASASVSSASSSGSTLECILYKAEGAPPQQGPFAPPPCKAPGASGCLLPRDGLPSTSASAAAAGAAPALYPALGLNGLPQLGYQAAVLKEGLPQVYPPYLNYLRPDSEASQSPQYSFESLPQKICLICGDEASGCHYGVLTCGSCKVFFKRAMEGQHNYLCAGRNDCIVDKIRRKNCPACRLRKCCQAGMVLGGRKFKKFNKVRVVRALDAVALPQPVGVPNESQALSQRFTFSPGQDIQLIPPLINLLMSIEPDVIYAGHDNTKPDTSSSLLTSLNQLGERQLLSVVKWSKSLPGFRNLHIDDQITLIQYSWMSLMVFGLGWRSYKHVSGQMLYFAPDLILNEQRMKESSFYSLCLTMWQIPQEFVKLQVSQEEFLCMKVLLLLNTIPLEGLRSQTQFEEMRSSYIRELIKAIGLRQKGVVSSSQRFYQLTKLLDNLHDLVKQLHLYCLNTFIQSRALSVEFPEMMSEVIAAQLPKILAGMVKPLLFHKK

Assay [7] deals with T6, 5-hydroxytryptamine receptor 1A (Homo sapiens, UniProt P08908).
T6 sequence (P08908 whole entry): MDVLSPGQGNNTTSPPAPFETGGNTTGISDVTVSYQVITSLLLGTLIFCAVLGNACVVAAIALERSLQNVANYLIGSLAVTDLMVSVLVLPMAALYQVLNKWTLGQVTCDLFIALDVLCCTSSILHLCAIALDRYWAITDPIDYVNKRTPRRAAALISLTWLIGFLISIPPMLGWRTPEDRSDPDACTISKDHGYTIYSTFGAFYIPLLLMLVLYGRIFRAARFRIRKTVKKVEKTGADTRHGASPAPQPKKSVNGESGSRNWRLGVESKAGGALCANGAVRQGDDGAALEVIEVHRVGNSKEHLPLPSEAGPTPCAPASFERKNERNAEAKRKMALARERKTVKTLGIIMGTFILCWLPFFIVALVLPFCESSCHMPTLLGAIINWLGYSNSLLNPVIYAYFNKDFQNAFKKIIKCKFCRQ
Also: assay procedure not described here.

Sequence of Beta-3 adrenergic receptor (P13945 whole entry): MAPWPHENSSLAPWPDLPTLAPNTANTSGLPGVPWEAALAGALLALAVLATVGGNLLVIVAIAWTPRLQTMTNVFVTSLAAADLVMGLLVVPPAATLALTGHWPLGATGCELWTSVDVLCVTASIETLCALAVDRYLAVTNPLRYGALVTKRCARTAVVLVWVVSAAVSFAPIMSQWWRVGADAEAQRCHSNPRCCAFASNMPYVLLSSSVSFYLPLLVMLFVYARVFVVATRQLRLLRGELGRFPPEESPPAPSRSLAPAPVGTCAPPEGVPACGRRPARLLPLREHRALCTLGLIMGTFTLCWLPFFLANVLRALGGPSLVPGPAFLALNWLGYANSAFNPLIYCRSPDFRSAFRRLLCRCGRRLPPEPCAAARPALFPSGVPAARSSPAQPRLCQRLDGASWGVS
Sequence of 5-hydroxytryptamine receptor 2A (P28223 whole entry): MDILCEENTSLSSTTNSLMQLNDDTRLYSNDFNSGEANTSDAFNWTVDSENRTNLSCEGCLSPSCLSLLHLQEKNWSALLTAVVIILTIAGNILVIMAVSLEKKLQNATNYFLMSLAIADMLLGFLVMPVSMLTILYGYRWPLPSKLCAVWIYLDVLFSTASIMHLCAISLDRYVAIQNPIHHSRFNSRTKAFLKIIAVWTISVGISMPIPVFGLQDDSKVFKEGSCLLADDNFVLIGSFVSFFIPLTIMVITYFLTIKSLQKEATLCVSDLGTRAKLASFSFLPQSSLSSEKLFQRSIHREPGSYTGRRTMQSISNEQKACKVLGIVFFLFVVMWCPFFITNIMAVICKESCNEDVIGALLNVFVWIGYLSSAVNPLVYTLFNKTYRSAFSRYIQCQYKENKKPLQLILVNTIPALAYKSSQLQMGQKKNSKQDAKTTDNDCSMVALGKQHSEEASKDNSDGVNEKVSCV
T2 sequence (P14867 whole entry): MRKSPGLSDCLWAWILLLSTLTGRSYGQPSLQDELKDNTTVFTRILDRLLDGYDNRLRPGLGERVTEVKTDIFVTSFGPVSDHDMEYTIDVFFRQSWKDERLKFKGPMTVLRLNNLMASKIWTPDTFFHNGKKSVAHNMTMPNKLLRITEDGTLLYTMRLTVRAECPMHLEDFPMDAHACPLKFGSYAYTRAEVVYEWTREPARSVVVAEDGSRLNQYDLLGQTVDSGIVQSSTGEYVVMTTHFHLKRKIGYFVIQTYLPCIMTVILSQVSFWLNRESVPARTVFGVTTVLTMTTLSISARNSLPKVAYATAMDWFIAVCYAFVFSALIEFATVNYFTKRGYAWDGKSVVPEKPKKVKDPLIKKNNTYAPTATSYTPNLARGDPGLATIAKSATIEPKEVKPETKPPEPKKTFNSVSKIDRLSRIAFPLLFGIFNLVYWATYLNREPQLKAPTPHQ
T2 sequence (P47870 whole entry): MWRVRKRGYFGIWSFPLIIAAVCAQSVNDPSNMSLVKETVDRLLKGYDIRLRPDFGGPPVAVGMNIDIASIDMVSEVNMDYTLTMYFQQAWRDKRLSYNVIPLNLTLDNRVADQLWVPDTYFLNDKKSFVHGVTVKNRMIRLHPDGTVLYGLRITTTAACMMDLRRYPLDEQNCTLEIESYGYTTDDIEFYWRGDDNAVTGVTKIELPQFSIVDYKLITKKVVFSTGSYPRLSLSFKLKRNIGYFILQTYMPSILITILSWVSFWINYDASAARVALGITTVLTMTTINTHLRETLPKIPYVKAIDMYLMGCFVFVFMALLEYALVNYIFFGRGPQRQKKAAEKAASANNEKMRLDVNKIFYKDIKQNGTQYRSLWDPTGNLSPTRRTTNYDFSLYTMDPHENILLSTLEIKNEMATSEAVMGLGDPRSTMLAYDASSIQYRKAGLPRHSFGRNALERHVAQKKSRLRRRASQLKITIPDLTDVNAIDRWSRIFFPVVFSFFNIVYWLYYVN
T2 sequence (P18507 whole entry): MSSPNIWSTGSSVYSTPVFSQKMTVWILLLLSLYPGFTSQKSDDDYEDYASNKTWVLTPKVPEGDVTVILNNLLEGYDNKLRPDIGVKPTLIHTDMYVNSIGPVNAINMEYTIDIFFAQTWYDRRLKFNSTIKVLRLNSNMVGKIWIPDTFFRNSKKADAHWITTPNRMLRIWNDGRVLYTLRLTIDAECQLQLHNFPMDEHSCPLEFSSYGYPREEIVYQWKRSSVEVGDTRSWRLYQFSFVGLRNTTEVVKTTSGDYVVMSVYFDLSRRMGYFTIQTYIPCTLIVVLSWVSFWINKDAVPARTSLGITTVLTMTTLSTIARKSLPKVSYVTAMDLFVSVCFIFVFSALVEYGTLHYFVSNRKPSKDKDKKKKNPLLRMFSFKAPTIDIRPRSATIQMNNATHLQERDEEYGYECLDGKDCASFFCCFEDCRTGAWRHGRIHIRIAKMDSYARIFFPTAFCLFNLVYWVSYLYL
T2 sequence (P47869 whole entry): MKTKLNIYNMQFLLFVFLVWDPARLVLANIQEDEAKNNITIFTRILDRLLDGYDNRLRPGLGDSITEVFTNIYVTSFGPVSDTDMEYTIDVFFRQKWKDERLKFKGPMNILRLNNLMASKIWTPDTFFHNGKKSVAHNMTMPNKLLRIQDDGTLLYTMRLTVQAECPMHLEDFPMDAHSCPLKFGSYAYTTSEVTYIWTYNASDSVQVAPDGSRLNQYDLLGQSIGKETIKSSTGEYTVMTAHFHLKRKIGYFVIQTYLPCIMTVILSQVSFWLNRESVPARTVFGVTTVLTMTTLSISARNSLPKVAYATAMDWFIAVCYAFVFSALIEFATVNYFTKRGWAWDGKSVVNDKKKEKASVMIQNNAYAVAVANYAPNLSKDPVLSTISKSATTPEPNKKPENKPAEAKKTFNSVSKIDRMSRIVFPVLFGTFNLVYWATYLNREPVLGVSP

For the compound `CC(=O)N[C@H]1[C@H]([C@H](O)[C@H](O)CO)OC(C(=O)O)=C[C@@H]1N=C(N)N` [ZANAMIVIR], in [1], the AC50 is more than 30 µM.
Regarding `O=C(Cn1ccnc1[N+](=O)[O-])NCc1ccccc1` [BENZNIDAZOLE], the AC50 in assay [2] and in assay [1] was more than 30 µM each time.
For `Cn1cc[nH]c1=S` [METHIMAZOLE], the concentration at half-maximal activity (AC50) in assay [2] was more than 30 µM.
Consider `CCCC(=O)N1CCCN(c2nc(N)c3cc(OC)c(OC)cc3n2)CC1` [BUNAZOSIN], for which the AC50 in assay [3], in [4] and in assay [1] was more than 30 µM each time.
In the case of `NS(=O)(=O)c1cc2c(cc1Cl)NC(CC1CCCC1)NS2(=O)=O` (stereo unspecified) [CYCLOPENTHIAZIDE], the AC50 in assay [2], in assay [3], in assay [4] and in assay [1] was more than 30 µM in each case.
In the case of `CC(C)(N)Cc1ccc(Cl)cc1` [CHLORPHENTERMINE], the AC50 is more than 30 µM in assay [5]; more than 30 µM on B1 bradykinin receptor; more than 30 µM in [6]; more than 30 µM in assay [1]; more than 30 µM on Progesterone receptor; more than 10 µM in assay [7].
As to `COCC1=C(C(=O)OC(C)OC(=O)OC(C)C)N2C(=O)[C@@H](NC(=O)/C(=N\OC)c3csc(N)n3)[C@H]2SC1` (stereo partly specified) [CEFPODOXIME PROXETIL], the AC50 in assay [2], in assay [3], in assay [4] and in assay [1] was more than 30 µM throughout.
`Nc1nc(-n2cc(C(=O)O)c(=O)c3cc(F)c(N4CC(O)C4)c(Cl)c32)c(F)cc1F` [DELAFLOXACIN] returned an AC50 in assay [2] of more than 30 µM.
As to `O=P(O)(O)C(O)(Cc1cccnc1)P(=O)(O)O` [RISEDRONIC ACID], the half-maximal activity concentration (AC50) in [5] is more than 30 µM; on B1 bradykinin receptor, more than 30 µM; in assay [6], more than 30 µM; at Progesterone receptor, more than 30 µM; in [7], more than 10 µM.
`CN1C(=O)N(C)C2C1N(C)C(=O)N2C` (stereo unspecified) [MEBICAR]: the AC50 in [2], in [3], in assay [4] and in [1] was more than 30 µM each time.
Consider `CC(C(O)c1ccc(O)cc1)N1CCC(Cc2ccccc2)CC1` (stereo unspecified) [IFENPRODIL], for which the AC50 in [1] is 9.6 µM.
`CC(C)NCC1CCc2cc(CO)c([N+](=O)[O-])cc2N1` (stereo unspecified) [OXAMNIQUINE]: the AC50 in assay [1] was more than 30 µM.
On to `CN(C)CCCN1c2ccccc2Sc2ccccc21` [PROMAZINE], for which the AC50 in assay [5] is more than 30 µM; on B1 bradykinin receptor, more than 30 µM; in [6], more than 30 µM; on Progesterone receptor, more than 30 µM; in assay [7], 4.37 µM.
On to `CC(=O)N(CC(O)CO)c1c(I)c(C(=O)NCC(O)CO)c(I)c(C(=O)NCC(O)CO)c1I` (stereo unspecified) [IOHEXOL], for which the AC50 in assay [1] is more than 30 µM; on Progesterone receptor it was more than 30 µM; in [7], more than 10 µM.
In turn, `CN(CCCN1c2ccccc2CCc2ccccc21)CC(=O)c1ccc(Cl)cc1` [LOFEPRAMINE] returned an AC50 in assay [1] of 6.6 µM.
In [2], `CC(C)=CCC1C(=O)N(c2ccccc2)N(c2ccccc2)C1=O` [FEPRAZONE] yielded an AC50 of more than 30 µM.
Consider `CC1=NN(c2ccccc2)C(=O)C1` [EDARAVONE], for which the AC50 in assay [2] was more than 30 µM.
Take `O=C1CCC(N2C(=O)c3ccccc3C2=O)C(=O)N1` (stereo unspecified) [THALIDOMIDE]: the AC50 is more than 30 µM in assay [5]; more than 30 µM at B1 bradykinin receptor; more than 30 µM in [6]; more than 30 µM on Progesterone receptor; more than 10 µM in [7].
`C[N+](C)(C)CC(=O)O` [BETAINE]: in assay [1], the AC50 is more than 30 µM.
Still for that read-out and setting: in the case of `CN(C)[C@@H]1C(O)=C(C(N)=O)C(=O)[C@@]2(O)C(O)=C3C(=O)c4c(O)ccc(Cl)c4[C@@H](O)[C@H]3C[C@@H]12` [DEMECLOCYCLINE] it was more than 10 µM; in that of `N[C@@H](CSCC(=O)O)C(=O)O` [CARBOCYSTEINE], more than 30 µM.
In the case of `O=C(O)c1cccc(-c2noc(-c3ccccc3F)n2)c1`, the AC50 on Progesterone receptor is more than 30 µM; in assay [7], more than 10 µM.
In the case of `O=C(O)CCn1c2c(c3ccccc31)C[C@H](NS(=O)(=O)c1ccc(F)cc1)CC2` [RAMATROBAN], the AC50 (at B1 bradykinin receptor; in assay [1]) was more than 10 µM throughout.
The compound `NS(=O)(=O)c1cc(Cl)c(Cl)c(S(N)(=O)=O)c1` [DICHLORPHENAMIDE] gave an AC50 in assay [1] of more than 10 µM.
Same read-out and setting: in the case of `NS(=O)(=O)c1cc(-c2nnn[nH]2)c(NCc2cccs2)cc1Cl` [AZOSEMIDE] it was more than 30 µM.
With `N/N=c1/cc2c(n[nH]1)CCN(C(=O)c1ccccc1)C2` [ENDRALAZINE], the AC50 in [2], in assay [3], in assay [4] and in assay [1] was more than 30 µM throughout.
In the case of `C=C1C[C@@H]2[C@H](CC[C@]3(C)C(=O)CC[C@@H]23)[C@@]2(C)C=CC(=O)C=C12` [EXEMESTANE], the AC50 in assay [5] is more than 30 µM; on B1 bradykinin receptor it was more than 30 µM; in assay [6], more than 30 µM; in [1], more than 30 µM; at Progesterone receptor, 29.3 µM; in assay [7] it was more than 10 µM.
For `CO/N=C(\C(=O)N[C@@H]1C(=O)N2C(C(=O)OCOC(=O)C(C)(C)C)=C(C)CS[C@H]12)c1csc(N)n1`, the AC50 in [2], in [3], in [4] and in [1] was more than 30 µM each time.
Regarding `O=C(Nc1ccccc1)OCC(CN1CCCCC1)OC(=O)Nc1ccccc1` (stereo unspecified) [DIPERODON], the AC50 in assay [5] is more than 30 µM; at B1 bradykinin receptor, more than 30 µM; in [6], more than 30 µM; in [1], more than 30 µM; at Progesterone receptor it was more than 30 µM; in assay [7], more than 10 µM.
`NC(=O)c1cccc2cn(-c3ccc([C@@H]4CCCNC4)cc3)nc12` [NIRAPARIB] returned an AC50 in [2] of 29.4 µM.
Regarding `C[N+](C)(C)CCOC(N)=O` [CARBAMOYLCHOLINE], the figures for the concentration at half-maximal activity (AC50) in assay [3] and in [7] were more than 30 µM and more than 10 µM, respectively.
